The values below come from patent US8921559B2, “4-substituted-cyclohexylamino-4-piperidinyl-acetamide antagonists of CCR2” (Janssen Pharmaceutica NV, priority 2010, dated 2014).

Structures are written as SMILES. pIC50: −log10 of the molar value. Where a name gives a salt, the structure may show the parent alone.

This assay addresses CCR2 (Homo sapiens (Human), UniProt P41597). Put plainly: MCP-1 Receptor Binding Assay in THP-1 Cells. The following applies: 0.5 nM 125I labeled MCP-1, 2 hours at 30° C., average of the two most similar values where more than one IC50, read-out: Inhibition of MCP-1 Binding IC50 CCR2 Binding. How it is done: Compounds of the invention were subjected to various representative biological tests. […] MCP-1 Receptor Binding Assay in THP-1 Cells Human monocytic cell line THP-1 cells were obtained from American Type Culture Collection (Manassas, Va., USA). The THP-1 cells were grown in RPMI-1640 (RPMI: Roswell Park Memorial Institute Medium-cell culture growth media) supplemented with 10% fetal bovine serum in a humidified 5% CO2 atmosphere at 37° C. The cell density was maintained between […].
THP-1 (cells were incubated with 0.5 nM ^125I labeled MCP-1 (Perkin-Elmer Life Sciences, Inc. Boston, Mass.) in the presence of varying concentrations of either unlabeled MCP-1 (R & D Systems, Minneapolis, Minn.) or test compound for 2 hours at 30° C. in a 96 well plate. Cells were then harvested onto a filter plate, dried, and 20 μL of Microscint 20 was added to each well. Plates were counted in a TopCount NXT, Microplate Scintillation & Luminescence Counter (Perkin-Elmer Life Sciences, Inc. Boston, Mass.). Blank values (buffer only) were subtracted from all values and drug treated values were compared to vehicle treated values. 1 μM cold MCP-1 was used for nonspecific binding.

What is called pIC50 is the negative decadic logarithm of the IC50, by convention in mol/L.

Chain of CCR2 (P41597 other isoform, or with tags, fused parts or gaps isoform P41597-2): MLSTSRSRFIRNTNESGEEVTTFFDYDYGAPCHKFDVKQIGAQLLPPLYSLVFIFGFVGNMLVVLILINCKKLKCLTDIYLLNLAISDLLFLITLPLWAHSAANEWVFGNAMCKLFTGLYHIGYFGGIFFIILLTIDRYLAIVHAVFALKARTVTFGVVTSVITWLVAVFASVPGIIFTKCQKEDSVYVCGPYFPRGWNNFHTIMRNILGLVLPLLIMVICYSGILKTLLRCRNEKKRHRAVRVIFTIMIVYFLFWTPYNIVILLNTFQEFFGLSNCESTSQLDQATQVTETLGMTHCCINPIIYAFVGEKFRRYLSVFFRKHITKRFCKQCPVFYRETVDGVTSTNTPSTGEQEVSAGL

Consider `NC(=O)C(NC1CCC(c2c[nH]c3ccccc23)CC1)C1CCN(C(=O)Nc2cccc(C(F)(F)F)c2)CC1` (stereo not shown) [Example 16, 2-[4-(1H-Indol-3-yl)-cyclohexylamino]-2-[N-(3-{trifluoromethyl}-phenyl)piperidine-1-carboxamid-4-yl]-acetamide], for which the pIC50 was 6.82. The result for `NC(=O)C(NC1CCC(c2c[nH]c3ccccc23)CC1)C1CCN(C(=O)Nc2ccc(F)c(F)c2)CC1` (stereo not shown) [Example 32, 2-[4-(1H-Indol-3-yl)-cyclohexylamino]-2-[N-(3,4-difluorophenyl)piperidine-1-carboxamid-4-yl]-acetamide] reads 6.09; that for `NC(=O)C(NC1CCC(c2c[nH]c3ccccc23)CC1)C1CCN(C(=O)/C=C/c2ccccc2F)CC1` (stereo not drawn) [Example 8, 2-[4-(1H-Indol-3-yl)-cyclohexylamino]-2-[1-(trans-2-fluorocinnamoyl)-piperidin-4-yl]-acetamide], 6.57.

Turning to `NC(=O)C(NC1CCC(c2c[nH]c3ccccc23)CC1)C1CCN(C(=O)/C=C/c2ccc3c(c2)CCO3)CC1` (stereo not drawn) [Example 15, 2-[4-(1H-Indol-3-yl)-cyclohexylamino]-2-[1-(trans-3-(2,3-dihydrobenzofuran-5-yl)prop-2-enoyl)piperidin-4-yl]-acetamide], the pIC50 is 6.83. `COC(=O)C(NC1CCC(c2c[nH]c3ccccc23)CC1)C1CCN(C(=O)/C=C/c2cc(F)c(F)c(F)c2)CC1` (stereo not shown) [Example 49b]: the pIC50 is 6.12. As for `CCOC(=O)c1ccc(NC(=O)N2CCC(C(NC3CCC(c4c[nH]c5ccccc45)CC3)C(N)=O)CC2)cc1` (stereo not shown) [Example 22, 2-[4-(1H-Indol-3-yl)-cyclohexylamino]-2-[N-(4-{ethoxycarbonyl}-phenyl)piperidine-1-carboxamid-4-yl]-acetamide], the pIC50 was 6.26. As to `NC(=O)C(NC1CCC(c2c[nH]c3ccccc23)CC1)C1CCN(C(=O)Nc2ccc(Cl)c(Cl)c2)CC1` (single isomer, unassigned) [Example 4b, 2-[4-(1H-Indol-3-yl)-cyclohexylamino]-2-[N-(3,4-dichlorophenyl)piperidine-1-carboxamid-4-yl]-acetamide], the pIC50 was 8.10. In the case of `NC(=O)C(NC1CCC(c2c[nH]c3ccccc23)CC1)C1CCN(C(=O)/C=C/c2ccc(F)cc2)CC1` (stereo not drawn) [Example 6, 2-[4-(1H-Indol-3-yl)-cyclohexylamino]-2-[1-(trans-4-fluorocinnamoyl)-piperidin-4-yl]-acetamide] it was 7.72; in that of `NC(=O)C(NC1CCC(c2c[nH]c3ccccc23)CC1)C1CCN(C(=O)Nc2ccc(F)cc2)CC1` (stereo not shown) [Example 29, 2-[4-(1H-Indol-3-yl)-cyclohexylamino]-2-[N-(4-fluorophenyl)piperidine-1-carboxamid-4-yl]-acetamide], 6.17.

Consider `NC(=O)C(NC1CCC(c2c[nH]c3cccnc23)CC1)C1CCN(C(=O)/C=C/c2cc(F)cc(F)c2)CC1` (stereo not drawn) [Example 45, R,S-2-[trans-4-(1H-pyrrolo[3,2-b]pyridin-3-yl)cyclohexyl]amino-2-[1-(trans-3,5-difluorocinnamoyl)-piperidin-4-yl]-acetamide], for which the pIC50 is 6.89. In the case of `COC(=O)C(N[C@H]1CC[C@H](c2c[nH]c3ccccc32)CC1)C1CCN(C(=O)/C=C/c2cc(F)cc(F)c2)CC1` (stereo partly drawn) [Example 24, Methyl 2-[4-(1H-indol-3-yl)-trans-cyclohexylamino]-2-[1-(trans-3,5-difluorocinnamoyl)piperidin-4-yl]-acetate] it was 6.41; in that of `NC(=O)C(NC1CCC(c2c[nH]c3cccnc23)CC1)C1CCN(C(=O)/C=C/c2cc(F)c(F)c(F)c2)CC1` (single isomer, unassigned) [Example 39a, 2-[4-(1H-pyrrolo[3,2-b]pyridin-3-yl)cyclohexyl]amino-2-[1-(trans-3,4,5-trifluorocinnamoyl)-piperidin-4-yl]-acetamide], 7.60.

Consider `CN(C)C(=O)C(NC1CCC(c2c[nH]c3ccccc23)CC1)C1CCN(C(=O)/C=C/c2cc(F)c(F)c(F)c2)CC1` (stereo not drawn) [Example 54, N,N-Dimethyl-2-{[4-(1H-Indol-3-yl)-cyclohexylamino]-2-[1-(trans-3,4,5-trifluorocinnamoyl)-piperidin-4-yl]}-acetamide], for which the pIC50 is 6.01.

With `NC(=O)C(NC1CCC(c2c[nH]c3ccccc23)CC1)C1CCN(C(=O)/C=C/c2ccc3c(c2)OCCO3)CC1` (stereo not drawn) [Example 23, 2-[4-(1H-Indol-3-yl)-cyclohexylamino]-2-[1-(trans-3-[2,3-dihydro-1,4-benzodioxin-7-yl]prop-2-enoyl)piperidin-4-yl]-acetamide], the pIC50 is 6.22. The result for `NC(=O)C(NC1CCC(c2c[nH]c3ccccc23)CC1)C1CCN(C(=O)/C=C/c2ccc3c(c2)CCCO3)CC1` (stereo not shown) [Example 33, 2-[4-(1H-indol-3-yl)-cyclohexylamino]-2-{1-[(2E)-3-(3,4-dihydro-2H-chromen-6-yl)prop-2-enoyl]piperidin-4-yl}acetamide] reads 6.02.

With `O=C(O)C(N[C@H]1CC[C@H](c2c[nH]c3ccccc32)CC1)C1CCN(C(=O)/C=C/c2cc(F)cc(F)c2)CC1` (stereo partly drawn) [Example 25, 2-[4-(1H-Indol-3-yl)-trans-cyclohexylamino]-2-[1-(trans-3,5-difluorocinnamoyl)-piperidin-4-yl]-acetic acid hydrochloride], the pIC50 was 6.66.

For the compound `NC(=O)C(N[C@H]1CC[C@H](c2c[nH]c3ccncc32)CC1)C1CCN(C(=O)/C=C/c2cc(F)c(F)c(F)c2)CC1` (stereo partly drawn) [Example 41, R,S-2-[trans-4-(1H-pyrrolo[3,2-c]pyridin-3-yl)cyclohexyl]amino-2-[1-(trans-3,4,5-trifluorocinnamoyl)-piperidin-4-yl]-acetamide], the pIC50 was 7.08.

As for `O=C(O)C(N[C@H]1CC[C@H](c2c[nH]c3ccccc32)CC1)C1CCN(C(=O)/C=C/c2cc(F)c(F)c(F)c2)CC1` (stereo partly drawn) [Example 26, 2-[4-(1H-Indol-3-yl)-cyclohexylamino]-2-[1-(trans-3,4,5-trifluorocinnamoyl)-piperidin-4-yl]-acetic acid hydrochloride], the pIC50 is 7.70. In the case of `NC(=O)C(NC1CCC(c2c[nH]c3ccccc23)CC1)C1CCN(C(=O)/C=C/c2ccc(OC(F)(F)F)cc2)CC1` (stereo not drawn) [Example 21, 2-[4-(1H-Indol-3-yl)-cyclohexylamino]-2-[1-(trans-4-(trifluoromethoxy)cinnamoyl)piperidin-4-yl]-acetamide] it was 6.31; in that of `NC(=O)C(NC1CCC(c2c[nH]c3ccncc23)CC1)C1CCN(C(=O)/C=C/c2ccc(F)cc2)CC1` (single isomer, unassigned) [Example 47b, 2-[4-(1H-pyrrolo[3,2-c]pyridin-3-yl)cyclohexyl]amino-2-[1-(trans-4-fluorocinnamoyl)-piperidin-4-yl]-acetamide], 6.19; in that of `O=C(NO)C(NC1CCC(c2c[nH]c3ccccc23)CC1)C1CCN(C(=O)/C=C/c2cc(F)c(F)c(F)c2)CC1` (stereo not drawn) [Example 51, N-Hydroxy-2-{[4-(1H-Indol-3-yl)-cyclohexylamino]-2-[1-(trans-3,4,5-trifluorocinnamoyl)-piperidin-4-yl]}-acetamide], 6.18. In the case of `NC(=O)C(NC1CCC(c2c[nH]c3ccncc23)CC1)C1CCN(C(=O)/C=C/c2ccc(F)cc2)CC1` (single isomer, unassigned) [Example 47a, 2-[4-(1H-pyrrolo[3,2-c]pyridin-3-yl)cyclohexyl]amino-2-[1-(trans-4-fluorocinnamoyl)-piperidin-4-yl]-acetamide] it was 6.39. The result for `NC(=O)C(NC1CCC(c2c[nH]c3ccccc23)CC1)C1CCN(C(=O)/C=C/c2ccc(F)c(F)c2)CC1` (stereo not drawn) [Example 5, 2-[4-(1H-Indol-3-yl)-cyclohexylamino]-2-[1-(trans-3,4-difluorocinnamoyl)-piperidin-4-yl]-acetamide] reads 7.68. In the case of `NC(=O)C(NC1CCC(c2c[nH]c3ccccc23)CC1)C1CCN(C(=O)/C=C/c2cccc(C(F)(F)F)c2)CC1` (stereo not drawn) [Example 10, 2-[4-(1H-Indol-3-yl)-cyclohexylamino]-2-[1-(trans-3-{trifluoromethyl}-cinnamoyl)piperidin-4-yl]-acetamide], the pIC50 is 7.12. For `NC(=O)C(NC1CCC(c2c[nH]c3cccnc23)CC1)C1CCN(C(=O)Nc2ccc(Cl)c(Cl)c2)CC1` (stereo not drawn) [Example 42, 2-[trans-4-(1H-pyrrolo[3,2-b]pyridin-3-yl)cyclohexyl]amino-2-[N-(3,4-dichlorophenyl)piperidine-1-carboxamid-4-yl]-acetamide], the pIC50 is 7.06.

As to `O=C(O)C(N[C@H]1CC[C@@H](c2c[nH]c3ccccc32)CC1)C1CCN(C(=O)Nc2ccc(Cl)c(Cl)c2)CC1` (stereo partly drawn) [Example 28, 2-[4-(1H-Indol-3-yl)-cis-cyclohexylamino]-2-[N-(3,4-dichlorophenyl)-piperidine-1-carboxamid-4-yl]-acetic acid hydrochloride], the negative-log IC50 (pIC50) was 6.49. As to `NC(=O)C(NC1CCC(c2c[nH]c3ccccc23)CC1)C1CCN(C(=O)/C=C/c2cccc(F)c2)CC1` (stereo not drawn) [Example 7, 2-[4-(1H-Indol-3-yl)-cyclohexylamino]-2-[1-(trans-3-fluorocinnamoyl)-piperidin-4-yl]-acetamide], the pIC50 was 7.64. In the case of `CNC(=O)C(NC1CCC(c2c[nH]c3ccccc23)CC1)C1CCN(C(=O)/C=C/c2cc(F)c(F)c(F)c2)CC1` (stereo not drawn) [Example 53, N-Methyl-2-{[4-(1H-Indol-3-yl)-cyclohexylamino]-2-[1-(trans-3,4,5-trifluorocinnamoyl)-piperidin-4-yl]}-acetamide] it was 6.01.
